Structures are written as SMILES.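 Exposure lasted 48 hours, with cells grown in 96-well plates and compounds tested at five concentrations. At the GI50, growth is halved.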 Activity calls are given as the source filed them. No stated cut-off is given here; in the data, active = GI50 up to about 1.1 µM and inactive = higher. Some results are limits rather than exact numbers.

From ChEMBL document CHEMBL1201862, “PubChem BioAssay data set” (2004) come the findings set out here.

Test systems include CCRF-CEM; SNB-19; HCC 2998; EKVX; SN12C; IGROV-1; 786-0; Malme-3M; SF-295; OVCAR-3; UO-31; SR; HCT-116; NCI-H460; OVCAR-5; TK-10; RXF 393; HT-29; HCT-15.
What all share (assay): NCI anticancer screen, dose series, 48 h

As for `COc1ccc(CC#N)c(OCc2ccccc2)c1`, the GI50 in the assay on CCRF-CEM was > 100 µM (inactive); with SNB-19, 40.6 µM (inactive); with HCC 2998 it was 29.9 µM (inactive); with EKVX it was 30.7 µM (inactive); in the assay with SN12C it was 51.5 µM (inactive); in the assay with IGROV-1, 29.4 µM (inactive). For the same compound, the GI50 is > 100 µM (inactive) in the assay with 786-0; 22 µM (inactive) in the assay on Malme-3M; 60 µM (inactive) with SF-295; 80.5 µM (inactive) in the assay with OVCAR-3; 42.2 µM (inactive) in the assay with UO-31; 33.4 µM (inactive) with SR. In addition, the values for the GI50 with HCT-116 and in the assay on NCI-H460 were 33.2 µM (inactive) and 61 µM (inactive), respectively.

As to `O=c1c2ccccc2oc2ccccc12.Oc1cccc2cccnc12`, the GI50 with CCRF-CEM was 0.815 µM (active); with SNB-19, 3.36 µM (inactive); with HCC 2998 it was 1.88 µM (inactive); in the assay on EKVX, 3.44 µM (inactive); in the assay on SN12C it was 2.22 µM (inactive); in the assay with IGROV-1, 3.73 µM (inactive). In addition, the GI50 is 1.66 µM (inactive) in the assay on 786-0; 1.75 µM (inactive) in the assay on Malme-3M; 2.23 µM (inactive) with SF-295; 5.53 µM (inactive) in the assay on OVCAR-3; 2.31 µM (inactive) with UO-31; 2.73 µM (inactive) in the assay with SR. Also, the GI50 in the assay with HCT-116 was 2.56 µM (inactive); in the assay with NCI-H460 it was 0.966 µM (active).

With `O=C(O)c1ccc(/N=N/c2cc(S(=O)(=O)O)c3cccnc3c2O)cc1`, the GI50 with SNB-19, with OVCAR-5, in the assay on HCC 2998, in the assay on TK-10, in the assay on EKVX and in the assay with RXF 393 was > 100 µM (inactive) throughout. Also, the GI50 with SN12C, with IGROV-1, in the assay on 786-0, with HT-29, in the assay on Malme-3M and in the assay on SF-295 was > 100 µM (inactive) throughout. Further, the GI50 was > 100 µM (inactive) with OVCAR-3; > 100 µM (inactive) with UO-31; > 100 µM (inactive) in the assay with SR; > 100 µM (inactive) in the assay with HCT-116; > 100 µM (inactive) in the assay with NCI-H460; > 100 µM in the assay with HCT-15.

`CCCCOC(=O)NC(=O)c1cn(CCSCCOC(=O)NCCCCCCNC(=O)OCCSCCn2cc(C(=O)NC(=O)OCCCC)c(=O)[nH]c2=O)c(=O)[nH]c1=O`: the GI50 is 26.6 µM (inactive) with SNB-19; > 100 µM (inactive) in the assay on OVCAR-5; > 100 µM (inactive) with HCC 2998; 30.1 µM (inactive) in the assay on TK-10; 91.4 µM (inactive) with EKVX; 22.5 µM (inactive) with RXF 393. For the same compound, the GI50 in the assay on SN12C is > 100 µM (inactive); with IGROV-1, 37.7 µM (inactive); with 786-0, 32.3 µM (inactive); in the assay on HT-29, > 100 µM (inactive); in the assay with Malme-3M, 29.7 µM (inactive); in the assay on SF-295, 26.6 µM (inactive). Also, the GI50 with OVCAR-3 was > 100 µM (inactive); in the assay on UO-31 it was > 100 µM (inactive); in the assay on SR it was 54.6 µM (inactive); in the assay on HCT-116, 73.8 µM (inactive); in the assay on NCI-H460, > 100 µM (inactive); in the assay with HCT-15 it was > 100 µM.

For the compound `CCOC(=O)c1ccc(/N=C/C=C(\Nc2ccc(C(=O)OCC)cc2)c2ccc3ccccc3c2)cc1`, the GI50 in the assay on CCRF-CEM is 17.9 µM (inactive); in the assay on SNB-19, 36.2 µM (inactive); with OVCAR-5, 48.4 µM (inactive); in the assay with TK-10 it was 19.8 µM (inactive); with RXF 393, 21.1 µM (inactive); in the assay on SN12C it was 26.7 µM (inactive). The GI50 with IGROV-1 was 36.2 µM (inactive); in the assay with 786-0, 23.3 µM (inactive); in the assay with HT-29 it was 18.4 µM (inactive); in the assay with Malme-3M, 20.5 µM (inactive); in the assay with SF-295 it was 28.2 µM (inactive); with OVCAR-3 it was 23.1 µM (inactive). In addition, the GI50 is 40.8 µM (inactive) in the assay on UO-31; 20.3 µM (inactive) with SR; 31.4 µM (inactive) in the assay on HCT-116; 25.8 µM (inactive) in the assay on NCI-H460; 20.7 µM in the assay on HCT-15.

Take `COC(=O)C(C(=O)C(=O)Nc1nc2ccc(OC)cc2s1)c1cnc2ccccc2n1` (configuration not stated): the GI50 in the assay on SNB-19, in the assay with OVCAR-5, in the assay on HCC 2998, in the assay with TK-10, in the assay with EKVX and in the assay on RXF 393 was > 100 µM (inactive) each time. The GI50 in the assay on SN12C, with IGROV-1, in the assay on 786-0, in the assay on HT-29, in the assay on Malme-3M and in the assay with SF-295 was > 100 µM (inactive) in each case. Besides, the GI50 was > 100 µM (inactive) in the assay on OVCAR-3; > 100 µM (inactive) in the assay on UO-31; > 100 µM (inactive) in the assay with HCT-116; > 100 µM (inactive) in the assay on NCI-H460; > 100 µM in the assay on HCT-15.

In the case of `Cc1ccc(C(=O)c2nnc(C(=O)c3ccc(C)cc3)nn2)cc1`, the GI50 is 18.8 µM (inactive) with CCRF-CEM; 41.5 µM (inactive) with SNB-19; 81.1 µM (inactive) with OVCAR-5; > 100 µM (inactive) in the assay with HCC 2998; 78.3 µM (inactive) in the assay with TK-10; 59.6 µM (inactive) in the assay with EKVX. The GI50 is 45.3 µM (inactive) in the assay with SN12C; 95.9 µM (inactive) with IGROV-1; 28.2 µM (inactive) in the assay on 786-0; 61.9 µM (inactive) in the assay on HT-29; 65.5 µM (inactive) in the assay with Malme-3M; 52.8 µM (inactive) with SF-295. Further, the GI50 was 43.4 µM (inactive) in the assay on OVCAR-3; 39.2 µM (inactive) in the assay on UO-31; 5.45 µM (inactive) with SR; 57.5 µM (inactive) with HCT-116; 18.4 µM (inactive) in the assay with NCI-H460; 76 µM in the assay with HCT-15.

`CCOC(=O)N1c2c(ccn2C)-c2ccn(C)c2N1C(=O)OCC`: the GI50 was 2.64 µM (inactive) in the assay on CCRF-CEM; > 10 µM (inactive) in the assay on SNB-19; 17.4 µM (inactive) in the assay with OVCAR-5; 19.6 µM (inactive) in the assay with HCC 2998; 15.8 µM (inactive) in the assay on SN12C; 24.9 µM (inactive) with IGROV-1. Besides, the GI50 was 11.1 µM (inactive) with 786-0; 15.7 µM (inactive) in the assay on HT-29; 19 µM (inactive) in the assay with Malme-3M; 15.3 µM (inactive) in the assay on SF-295; 14.1 µM (inactive) in the assay with OVCAR-3; 19.8 µM (inactive) in the assay with UO-31. Further, the GI50 with SR was 15.8 µM (inactive); in the assay on HCT-116, 14.8 µM (inactive); in the assay with NCI-H460 it was 19.4 µM (inactive); with HCT-15 it was 12.9 µM.

`O=C(NCCN1CCOCC1)c1ccc(I)cc1`: the GI50 in the assay on CCRF-CEM, with SNB-19, in the assay with OVCAR-5, with HCC 2998, in the assay with TK-10 and in the assay with EKVX was > 100 µM (inactive) each time. Also, the GI50 in the assay with SN12C, with IGROV-1, in the assay with 786-0, in the assay on HT-29, with OVCAR-3 and with UO-31 was > 100 µM (inactive) in each case. In addition, the figures for the GI50 in the assay on SR, in the assay with NCI-H460 and in the assay with HCT-15 were > 100 µM (inactive), > 100 µM (inactive) and > 100 µM, respectively.

In the case of `Cc1c(CN)c(C)c(CN)c(C)c1CN`, the GI50 in the assay on CCRF-CEM, with SNB-19, in the assay on OVCAR-5, in the assay with HCC 2998, in the assay on TK-10 and in the assay on EKVX was > 100 µM (inactive) each time. Also, the GI50 in the assay on SN12C, with IGROV-1, with 786-0, with HT-29, in the assay on Malme-3M and with SF-295 was > 100 µM (inactive) each time. The GI50 with SR was > 100 µM (inactive); with HCT-116, > 100 µM (inactive); in the assay on NCI-H460, > 100 µM (inactive); in the assay on HCT-15, > 100 µM.

With `NC(=O)c1cc(C2OC(CO)C(O)C2O)nn1-c1ccc([N+](=O)[O-])cc1` (configuration not stated), the GI50 with CCRF-CEM, with SNB-19, in the assay on OVCAR-5, with HCC 2998, in the assay on TK-10 and in the assay with EKVX was > 100 µM (inactive) each time. The GI50 with RXF 393 was > 100 µM (inactive); with SN12C it was > 100 µM (inactive); in the assay on IGROV-1, > 100 µM (inactive); in the assay with 786-0, > 10 µM (inactive); with HT-29 it was > 100 µM (inactive); in the assay with Malme-3M it was > 100 µM (inactive). Further, the GI50 is > 100 µM (inactive) with SF-295; > 100 µM (inactive) in the assay on OVCAR-3; > 100 µM (inactive) in the assay with UO-31; > 100 µM (inactive) in the assay on HCT-116; > 100 µM (inactive) in the assay on NCI-H460; > 100 µM in the assay on HCT-15.

As for `O=[N+]([O-])c1cccc(C2=NN(c3ccccc3)C3c4cc(Br)ccc4OCC23)c1` (configuration not stated), the GI50 in the assay with CCRF-CEM is > 100 µM (inactive); with SNB-19 it was > 100 µM (inactive); in the assay with OVCAR-5, > 100 µM (inactive); in the assay on HCC 2998, > 100 µM (inactive); in the assay with TK-10, > 100 µM (inactive); in the assay with EKVX it was 87.7 µM (inactive). Also, the GI50 is > 100 µM (inactive) in the assay on RXF 393; > 100 µM (inactive) in the assay with IGROV-1; > 100 µM (inactive) with 786-0; 46.1 µM (inactive) in the assay on HT-29; > 100 µM (inactive) in the assay on Malme-3M; > 100 µM (inactive) in the assay on SF-295. The GI50 with OVCAR-3 is > 100 µM (inactive); in the assay on UO-31, 17.3 µM (inactive); in the assay on HCT-116, 45.9 µM (inactive); in the assay with NCI-H460, > 100 µM (inactive).
